Test: Sodium hypochlorite bleaching of different types of denim, Wascator, colour of face side of denim
Details: 25 ml/l 10 % NaOCl, 15 min, 40°C, pH 11.5 - 11.9
Method: Different types of demin were treated with a TaLcc1 laccase product from Trichoderma strain RF5597 and DeniLite II Base from Novozymes and the results obtained were compared to hypochlorite bleaching. All together 27 pieces of different kinds of denim (whole jeans), which had been previously washed with cellulase after desizing to different abrasion levels or had been only desized with ECOSTONE® A200 (60°C, 10 min), were collected for the test (Table 15). The jeans were made of Indigo dyed denim, except the English jeans contained Indigo dyed denim with sulphur bottom. Jeans were cut in such a way that pieces from the same pair of jeans could be used for all tests.
The sodium hypochlorite bleaching was performed with Electrolux's Wascator FOM 71 CLS washer extractor using denim obtained from the same jeans as in laccase treatments under conditions described in Table 17. Sodium hydroxide was added before adding 25 ml/l of 10 % sodium hypochlorite solution (Klorite Forte, Farmos Oy) to keep the pH above 10.5 during the treatment. After draining the bleach liquor, there was one 2 minutes rinsing step with the liquor ratio of 1:20 before dechlorinating with sodium thiosulphate. After dechlorinating the denim samples were rinsed 3 times for 2 minutes with the liquor ratio of 1:20. The fabrics were dried in a tumbler. Table 17. The process parameters used in the sodium hypochlorite bleaching and dechlorinating.
The bleaching effect was evaluated by measuring the colour as reflectance values as in Example 7. […] Different looks were obtained depending on the type of the denim and cellulase treatment used. "Sulphur-bottom type" denim was the most difficult to bleach. Table 18. Colour measurements of the face side of denim treated with TaLcc1 laccase preparation (RF5597). L* indicates lightness, -b* is the blue direction, +b* is the yellow direction.

[1] = sample B1, Basic Jeans, Ecostone P1250
[2] = sample E1, English jeans (sulphur bottom), desized only
[3] = sample E2, English jeans (sulphur bottom), Ecostone NP2000
[4] = sample E3, English jeans (sulphur bottom), Rocksoft NCE-EA
[5] = sample E4, English jeans (sulphur bottom), Rocksoft NCE-2X
[6] = sample E5, English jeans (sulphur bottom), Ecostone L900
[7] = sample E6, English jeans (sulphur bottom), Ecostone L900
[8] = sample E7, English jeans (sulphur bottom), Ecostone L900
[9] = sample L1, Lee Cooper jeans, desized only
[10] = sample L2, Lee Cooper jeans, Ecostone L
[11] = sample L3, Lee Cooper jeans, Biotouch C29
[12] = sample L4, Lee Cooper jeans, Ecostone L
[13] = sample L5, Lee Cooper jeans, Indiage Max L
[14] = sample L6, Lee Cooper jeans, Indiage Super L
[15] = sample L7, Lee Cooper jeans, Ecostone CXP500 Exper.
[16] = sample L8, Lee Cooper jeans, Ecostone CXP experimental
[17] = sample L9, Lee Cooper jeans, Ecostone N400
[18] = sample T1, Tincan jeans, desized only
[19] = sample T2, Tincan jeans, Ecostone N400
[20] = sample T3, Tincan jeans, Ecostone L300
[21] = sample T4, Tincan jeans, Denimax 991S
[22] = sample W1, Warric jeans, desized only
[23] = sample W2, Warric jeans, Ecostone P4500
[24] = sample W3, Warric jeans, Indiage Max G
[25] = sample W4, Warric jeans, Ecostone NP2000
[26] = sample W5, Warric jeans, Ecostone L900
[27] = sample W6, Warric jeans, Denabraide MBL 65 E

OCl [sodium hypochlorite]
After laccase Treatment L* [1]: 40.62
After laccase Treatment b* [1]: -17.37
Increase of L* [1]: 12.27
After laccase Treatment L* [2]: 21.91
After laccase Treatment b* [2]: -15.03
Increase of L* [2]: 5.15
After laccase Treatment L* [3]: 33.30
After laccase Treatment b* [3]: -16.43
Increase of L* [3]: 7.36
After laccase Treatment L* [4]: 34.13
After laccase Treatment b* [4]: -16.73
Increase of L* [4]: 9.40
After laccase Treatment L* [5]: 35.83
After laccase Treatment b* [5]: -16.86
Increase of L* [5]: 9.28
After laccase Treatment L* [6]: 33.85
After laccase Treatment b* [6]: -16.48
Increase of L* [6]: 9.28
After laccase Treatment L* [7]: 30.61
After laccase Treatment b* [7]: -16.65
Increase of L* [7]: 8.41
After laccase Treatment L* [8]: 32.36
After laccase Treatment b* [8]: -16.75
Increase of L* [8]: 9.62
After laccase Treatment L* [9]: 31.23
After laccase Treatment b* [9]: -20.83
Increase of L* [9]: 10.69
After laccase Treatment L* [10]: 44.11
After laccase Treatment b* [10]: -18.60
Increase of L* [10]: 12.97
After laccase Treatment L* [11]: 39.71
After laccase Treatment b* [11]: -19.67
Increase of L* [11]: 11.26
After laccase Treatment L* [12]: 40.63
After laccase Treatment b* [12]: -19.25
Increase of L* [12]: 11.48
After laccase Treatment L* [13]: 39.47
After laccase Treatment b* [13]: -19.48
Increase of L* [13]: 11.47
After laccase Treatment L* [14]: 41.50
After laccase Treatment b* [14]: -18.68
Increase of L* [14]: 12.42
After laccase Treatment L* [15]: 37.91
After laccase Treatment b* [15]: -19.85
Increase of L* [15]: 11.15
After laccase Treatment L* [16]: 40.74
After laccase Treatment b* [16]: -19.12
Increase of L* [16]: 11.98
After laccase Treatment L* [17]: 40.82
After laccase Treatment b* [17]: -18.82
Increase of L* [17]: 11.91
After laccase Treatment L* [18]: 33.97
After laccase Treatment b* [18]: -17.95
Increase of L* [18]: 8.95
After laccase Treatment L* [19]: 34.38
After laccase Treatment b* [19]: -18.22
Increase of L* [19]: 6.73
After laccase Treatment L* [20]: 40.33
After laccase Treatment b* [20]: -18.30
Increase of L* [20]: 11.24
After laccase Treatment L* [21]: 37.66
After laccase Treatment b* [21]: -18.58
Increase of L* [21]: 10.10
After laccase Treatment L* [22]: 27.75
After laccase Treatment b* [22]: -18.76
Increase of L* [22]: 10.17
After laccase Treatment L* [23]: 39.35
After laccase Treatment b* [23]: -17.39
Increase of L* [23]: 13.76
After laccase Treatment L* [24]: 41.11
After laccase Treatment b* [24]: -16.79
Increase of L* [24]: 12.99
After laccase Treatment L* [25]: 38.07
After laccase Treatment b* [25]: -17.33
Increase of L* [25]: 12.29
After laccase Treatment L* [26]: 37.12
After laccase Treatment b* [26]: -18.03
Increase of L* [26]: 13.40
After laccase Treatment L* [27]: 36.65
After laccase Treatment b* [27]: -17.95
Increase of L* [27]: 12.90

Reference: EP1799816B1, “NOVEL LACCASE ENZYME AND USE THEREOF” (AB Enzymes Oy, priority 2004, dated 2006)
